Measured values reported in US9662318B2, “Bitopic muscarinic agonists and antagonists and methods of synthesis and use thereof” (BARRY UNIVERSITY, INC., priority 2012, dated 2017).

Columns and labels:
M1 muscarinic receptor = target: T1, M1 muscarinic receptor (Homo sapiens, UniProt P11229); experiment: Dissociation of [3H]acetylcholine (full time course kinetics); format: binding; conditions: [3H]acetylcholine dissociation
T1 sequence (P11229 1-460): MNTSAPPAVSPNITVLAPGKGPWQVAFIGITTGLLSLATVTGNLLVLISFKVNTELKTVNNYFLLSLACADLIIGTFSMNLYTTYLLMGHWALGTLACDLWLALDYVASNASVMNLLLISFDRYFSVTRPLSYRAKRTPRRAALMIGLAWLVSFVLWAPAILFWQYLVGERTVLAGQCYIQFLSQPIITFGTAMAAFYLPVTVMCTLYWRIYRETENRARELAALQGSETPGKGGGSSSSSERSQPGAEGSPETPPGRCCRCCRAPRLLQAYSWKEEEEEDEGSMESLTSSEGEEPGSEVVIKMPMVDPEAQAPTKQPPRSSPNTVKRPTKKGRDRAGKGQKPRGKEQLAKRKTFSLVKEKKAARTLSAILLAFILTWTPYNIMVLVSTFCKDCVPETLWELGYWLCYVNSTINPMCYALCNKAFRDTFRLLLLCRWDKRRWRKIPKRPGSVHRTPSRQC
Text: (§1) To probe the ability of JB-D4 to allosterically modulate orthosteric ligand, its effect on the rate of orthosteric radioligand dissociation has been investigated. […] where y is the percentage of radioligand binding at time x of radioligand binding at time 0, koff1 and koff2 are rate dissociation constants and f2 is the percentage of sites with koff2 rate of dissociation. […] y is the percentage of radioligand binding at time x of radioligand binding at time 0, koff is rate dissociation constant and f is percentage of sites with koff rate of dissociation. Eq. 2 was fitted to the data from kinetic experiments. Data are means±SD from 3 independent experiments performed in quadruplicates.

M4 muscarinic receptor = target: T2, M4 muscarinic receptor (Homo sapiens, UniProt P08173); experiment: as above; format: binding; conditions: [3H]acetylcholine dissociation
T2 construct: host or cells: Chinese hamster ovary cells
T2 sequence (P08173 1-479): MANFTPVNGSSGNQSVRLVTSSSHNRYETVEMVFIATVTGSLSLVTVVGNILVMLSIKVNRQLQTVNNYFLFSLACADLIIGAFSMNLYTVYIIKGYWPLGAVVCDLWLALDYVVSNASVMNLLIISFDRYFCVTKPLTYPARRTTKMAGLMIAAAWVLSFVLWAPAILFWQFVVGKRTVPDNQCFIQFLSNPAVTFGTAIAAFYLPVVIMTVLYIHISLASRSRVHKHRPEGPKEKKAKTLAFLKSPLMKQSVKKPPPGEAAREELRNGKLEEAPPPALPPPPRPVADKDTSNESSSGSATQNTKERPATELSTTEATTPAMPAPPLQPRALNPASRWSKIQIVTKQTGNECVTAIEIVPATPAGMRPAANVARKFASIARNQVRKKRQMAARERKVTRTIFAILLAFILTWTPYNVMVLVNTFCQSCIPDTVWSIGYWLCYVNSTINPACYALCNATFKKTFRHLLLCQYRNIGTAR
Text: as §1

With `CCCCOc1ccc(C(=O)OCC[N+]2(C)CCCCC2)cc1.[I-]` [JB-D4, 2-(N-piperidineethyl) p-butoxybenzoate N-methyl iodide] the f (M1 muscarinic receptor; +0.1 mM JB-D4, M1) was 90 ± 3%, the koff (M1 muscarinic receptor; +0.1 mM JB-D4, M1) was 0.00317 s⁻¹ and the f (M1 muscarinic receptor; +1 mM JB-D4, M1) was 88 ± 3%. It also gave a koff (M1 muscarinic receptor; +1 mM JB-D4, M1) of 0.00183 s⁻¹, a f (M4 muscarinic receptor; +0.1 mM JB-D4, M4) of 81 ± 4% and a koff (M4 muscarinic receptor; +0.1 mM JB-D4, M4) of 0.003 s⁻¹. It also gave a f (M4 muscarinic receptor; +1 mM JB-D4, M4) of 86 ± 3% and a koff (M4 muscarinic receptor; +1 mM JB-D4, M4) of 0.000817 s⁻¹.
